In patent US20200120909A1, “COMPOSITIONS AND METHODS FOR THE STUDY AND TREATMENT OF ACUTE KIDNEY INJURY” (THE JOHNS HOPKINS UNIVERSITY, priority 2014, published 2020):

Legend:
Nrf2 [1] = experiment: Nrf2 target gene expression in treated human peripheral blood mononuclear cells; format: cell-based
Description: (§1) FIG. 11. […] RNA isolated from these cells was analyzed by quantitative real-time PCR for expression of Nrf2 target genes, NQO1, HO-1 and GCLM. […] Furthermore, we treated peripheral blood mononuclear cells (PBMCs) from healthy individuals and treated them with CDDO-Me (Bardoxolone), an Nrf2 activator related to triterpenopid derivative CDDO-Im.

Nrf2 [2] = experiment: Ex-vivo Nrf2 activation of purified mouse T cells, real-time PCR of Nrf2 target genes; format: cell-based
Description: as §1
Antioxidant Gene Expression Analyses. Total RNA ([…]) from purified T cells was isolated with the RNeasy mini kit (Qiagen, Valencia, Calif.) and reverse transcribed using a high capacity cDNA synthesis kit (Life Technologies). A gene-specific TaqMan primer and probe sets were used to assess transcriptional status of Nrf2, Nqo1, Ho-1, Gclm, and Gclc in Quantstudio 12K flex real-time PCR (Life Technologies). The absolute expression values for each gene were normalized to that of b-actin and the relative gene expression values calculated.

acute kidney injury = conditions: pharmacological activation of Nrf2 regulated antioxidant response; cited from earlier work
T cells = conditions: cited from earlier work; for TNF-a and IFN-g production: after CD3/CD28 activation; for T helper phenotype skewing: pharmacologic activation of Nrf2
[3] = purified T cells from wild type mice, 20 nM and 50 nM, 24 hours

## CC1(C)CC[C@]2(C(=O)n3ccnc3)CC[C@]3(C)[C@H](C(=O)C=C4[C@@]5(C)C=C(C#N)C(=O)C(C)(C)[C@@H]5CC[C@]43C)[C@@H]2C1 [CDDO-Im]
Nrf2 [1]; human PBMCs, 20 and 50 μM
  activating Nrf2 regulated antioxidant gene expression: significantly effective
Nrf2 [2]; [3]
  HO-1 mRNA expression: significant increase
  NQO1 mRNA expression: significant increase
Nrf2 [2]; purified mouse T cells, 20 and 50 μM
  activating Nrf2 regulated antioxidant gene expression: significantly effective
Acute kidney injury
  protection from acute kidney injury: can protect from acute kidney injury

## COC(=O)[C@]12CCC(C)(C)C[C@H]1[C@H]1C(=O)C=C3[C@@]4(C)C=C(C#N)C(=O)C(C)(C)[C@@H]4CC[C@@]3(C)[C@]1(C)CC2 [CDDO-Me, bardoxolone methyl]
Nrf2 [1]; PBMCs from healthy individuals, p=0.01
  gene expression of GCLM: significant increase
Nrf2 [1]; PBMCs from healthy individuals, p=0.02
  gene expression of NQO1: significant increase
Nrf2 [1]; PBMCs from healthy individuals, p=0.05
  gene expression of HO-1: significant increase

## COc1ccc(O)c(C(C)(C)C)c1 [butylated hydroxyanisole]
T cells
  TNF-a and IFN-g production: suppress
  T helper phenotype skewing: skew T cells toward a Th2 type phenotype

## CC(C)(C)c1cc(O)ccc1O [tertbutylhydroquinone, tert-butylhydroquinone]
T cells
  TNF-a and IFN-g production: suppress
  T helper phenotype skewing: skew T cells toward a Th2 type phenotype
